Calls of active or inactive are those of the source. No cut-off for these calls is given here.
Experiments:
[1] = tested on: Proto-oncogene tyrosine-protein kinase receptor Ret (Homo sapiens), P07949 [V804L]; experiment: Inhibition of RET V804L mutant (unknown origin) at 1 uM by Ambit Kinomescan binding assay relative to control; values are per cent of control
[2] = tested on: Mast/stem cell growth factor receptor Kit (Homo sapiens), P10721 [L576P]; experiment: Inhibition of KIT L576P mutant (unknown origin) at 1 uM by Ambit Kinomescan binding assay relative to control; values are per cent of control
[3] = target: Mitogen-activated protein kinase 3 (Homo sapiens) (UniProt P27361); experiment: Inhibition of Erk1 Lys2 labeling site harbouring YIHSANVLHRDLKPSNLLINTTCDLK in human A-375 cells at 0.05 uM by KiNativ Profiling analysis relative to control; assay type: cell-based
[4] = target: eIF-2-alpha kinase GCN2 (Homo sapiens) (UniProt Q9P2K8); experiment: Inhibition of GCN2 K2 labeling site in human Huh-7 cells at 1 uM by KiNativ Profiling analysis relative to control; assay type: cell-based
[5] = target: Wee1-like protein kinase 2 (Homo sapiens) (UniProt P0C1S8); experiment: Inhibition of WEE2 (unknown origin) at 10 uM by Ambit Kinomescan binding assay
[6] = target: Tyrosine-protein kinase ABL1 (Homo sapiens, UniProt P00519); experiment: Inhibition of ABL Lys1 labeling site in human A-375 cells at 5 uM by KiNativ Profiling analysis relative to control; assay type: cell-based
[7] = target: T1, Mitogen-activated protein kinase kinase kinase kinase 2 (Homo sapiens) (UniProt Q12851); experiment: Inhibition of MAP4K2 (GCK) Lys2 labeling site in human A-375 cells at 5 uM by KiNativ Profiling analysis relative to control; assay type: cell-based
T1 sequence (whole entry): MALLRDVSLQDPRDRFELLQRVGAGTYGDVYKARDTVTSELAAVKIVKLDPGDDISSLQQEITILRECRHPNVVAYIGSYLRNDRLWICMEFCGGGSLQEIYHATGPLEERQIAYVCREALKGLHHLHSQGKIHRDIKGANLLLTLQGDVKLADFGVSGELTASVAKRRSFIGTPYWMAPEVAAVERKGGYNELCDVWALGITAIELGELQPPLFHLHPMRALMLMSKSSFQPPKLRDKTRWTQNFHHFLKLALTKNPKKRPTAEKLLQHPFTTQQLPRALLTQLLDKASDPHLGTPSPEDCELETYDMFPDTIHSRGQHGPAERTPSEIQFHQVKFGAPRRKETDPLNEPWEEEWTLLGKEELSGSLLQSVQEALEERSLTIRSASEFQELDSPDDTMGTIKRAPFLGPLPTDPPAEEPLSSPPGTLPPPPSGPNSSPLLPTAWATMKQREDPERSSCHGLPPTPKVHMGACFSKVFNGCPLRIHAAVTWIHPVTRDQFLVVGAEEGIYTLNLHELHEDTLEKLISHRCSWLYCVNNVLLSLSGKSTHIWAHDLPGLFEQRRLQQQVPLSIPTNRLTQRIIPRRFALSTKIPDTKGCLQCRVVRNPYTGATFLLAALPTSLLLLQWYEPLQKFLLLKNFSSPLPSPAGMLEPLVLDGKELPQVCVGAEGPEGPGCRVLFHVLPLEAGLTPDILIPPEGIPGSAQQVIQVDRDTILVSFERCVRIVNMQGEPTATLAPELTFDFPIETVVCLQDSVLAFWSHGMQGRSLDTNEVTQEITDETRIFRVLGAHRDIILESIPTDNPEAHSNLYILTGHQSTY

[8] = target: Dual specificity mitogen-activated protein kinase kinase 2 (Homo sapiens) (UniProt P36507); experiment: Inhibition of MEK2 (unknown origin) at 10 uM by Ambit Kinomescan binding assay
[9] = Inhibition of MARK2/3 K2 labeling site in human Huh-7 cells at 10 uM by KiNativ Profiling analysis relative to control; settings: condition cancer
[10] = target: T2, Phosphatidylinositol 5-phosphate 4-kinase type-2 alpha (Homo sapiens) (UniProt P48426); experiment: Inhibition of PIP4K2A ATP labeling site in human A-375 cells at 0.05 uM by KiNativ Profiling analysis relative to control; assay type: cell-based
T2 sequence (whole entry): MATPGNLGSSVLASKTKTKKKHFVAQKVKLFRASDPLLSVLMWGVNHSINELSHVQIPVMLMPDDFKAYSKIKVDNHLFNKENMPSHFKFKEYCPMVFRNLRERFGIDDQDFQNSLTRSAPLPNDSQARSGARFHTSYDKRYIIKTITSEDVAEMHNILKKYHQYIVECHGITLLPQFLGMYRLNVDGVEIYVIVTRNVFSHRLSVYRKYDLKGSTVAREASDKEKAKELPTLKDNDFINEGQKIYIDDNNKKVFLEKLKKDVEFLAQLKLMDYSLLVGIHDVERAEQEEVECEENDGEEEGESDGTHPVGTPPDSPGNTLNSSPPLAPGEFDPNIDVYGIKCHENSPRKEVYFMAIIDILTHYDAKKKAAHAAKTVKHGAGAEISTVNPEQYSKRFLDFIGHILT

[11] = target: Serine/threonine-protein kinase SIK2 (Homo sapiens) (UniProt Q9H0K1); experiment: Inhibition of SIK2 (unknown origin) at 10 uM by Ambit Kinomescan binding assay
[12] = target: T3, Dual specificity mitogen-activated protein kinase kinase 4 (Homo sapiens) (UniProt P45985); experiment: Inhibition of MAP2K4 Lys2 labeling site in human A-375 cells at 0.05 uM by KiNativ Profiling analysis relative to control; assay type: cell-based
T3 sequence (whole entry): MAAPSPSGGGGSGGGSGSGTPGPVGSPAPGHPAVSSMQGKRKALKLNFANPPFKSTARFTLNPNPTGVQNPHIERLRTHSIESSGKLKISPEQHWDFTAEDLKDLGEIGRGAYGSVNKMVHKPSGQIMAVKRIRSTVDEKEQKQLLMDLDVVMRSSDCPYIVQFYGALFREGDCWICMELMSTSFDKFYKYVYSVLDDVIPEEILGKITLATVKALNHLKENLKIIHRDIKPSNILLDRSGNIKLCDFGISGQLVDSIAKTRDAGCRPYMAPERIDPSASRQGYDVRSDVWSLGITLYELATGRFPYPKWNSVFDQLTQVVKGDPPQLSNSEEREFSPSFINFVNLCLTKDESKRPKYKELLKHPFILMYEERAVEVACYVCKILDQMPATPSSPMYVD

[13] = target: Cyclin-dependent kinase 2 (Homo sapiens) (UniProt P24941); experiment: Inhibition of CDK2 K2 labeling site in human Huh-7 cells at 1 uM by KiNativ Profiling analysis relative to control; assay type: cell-based
[14] = Inhibition of KHS1 Lys2 labeling site harbouring DIKGANILLTDHGDVKLADFGVAAK in human Huh-7 cell lysate at 1 uM by KiNativ Profiling analysis relative to control; settings: condition cancer

Sequence of Serine/threonine-protein kinase SIK2 (Homo sapiens) (Q9H0K1 whole entry, looked up): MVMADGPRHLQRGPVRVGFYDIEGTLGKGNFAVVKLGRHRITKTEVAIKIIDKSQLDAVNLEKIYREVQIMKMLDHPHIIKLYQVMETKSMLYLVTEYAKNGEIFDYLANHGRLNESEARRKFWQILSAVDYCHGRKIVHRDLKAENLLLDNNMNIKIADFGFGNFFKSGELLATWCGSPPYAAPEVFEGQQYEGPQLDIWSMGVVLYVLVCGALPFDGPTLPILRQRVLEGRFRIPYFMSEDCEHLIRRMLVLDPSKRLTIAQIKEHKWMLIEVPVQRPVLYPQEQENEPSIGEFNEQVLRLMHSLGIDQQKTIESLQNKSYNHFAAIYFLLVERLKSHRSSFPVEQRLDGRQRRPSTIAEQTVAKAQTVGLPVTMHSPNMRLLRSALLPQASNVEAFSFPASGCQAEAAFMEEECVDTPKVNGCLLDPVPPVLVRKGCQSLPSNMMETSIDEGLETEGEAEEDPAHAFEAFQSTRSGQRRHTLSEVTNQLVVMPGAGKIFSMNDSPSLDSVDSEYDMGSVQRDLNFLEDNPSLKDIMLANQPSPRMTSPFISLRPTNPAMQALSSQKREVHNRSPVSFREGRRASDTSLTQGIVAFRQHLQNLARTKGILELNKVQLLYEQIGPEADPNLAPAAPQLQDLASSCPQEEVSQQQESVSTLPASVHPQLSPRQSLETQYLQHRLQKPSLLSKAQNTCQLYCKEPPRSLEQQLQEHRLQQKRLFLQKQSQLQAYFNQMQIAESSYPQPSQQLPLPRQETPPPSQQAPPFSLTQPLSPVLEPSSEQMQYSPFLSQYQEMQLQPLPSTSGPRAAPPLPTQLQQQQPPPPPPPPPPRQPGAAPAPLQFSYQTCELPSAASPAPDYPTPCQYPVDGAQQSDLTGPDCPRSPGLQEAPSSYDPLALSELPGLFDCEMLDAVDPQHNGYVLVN
Sequence of Wee1-like protein kinase 2 (Homo sapiens) (P0C1S8 whole entry, looked up): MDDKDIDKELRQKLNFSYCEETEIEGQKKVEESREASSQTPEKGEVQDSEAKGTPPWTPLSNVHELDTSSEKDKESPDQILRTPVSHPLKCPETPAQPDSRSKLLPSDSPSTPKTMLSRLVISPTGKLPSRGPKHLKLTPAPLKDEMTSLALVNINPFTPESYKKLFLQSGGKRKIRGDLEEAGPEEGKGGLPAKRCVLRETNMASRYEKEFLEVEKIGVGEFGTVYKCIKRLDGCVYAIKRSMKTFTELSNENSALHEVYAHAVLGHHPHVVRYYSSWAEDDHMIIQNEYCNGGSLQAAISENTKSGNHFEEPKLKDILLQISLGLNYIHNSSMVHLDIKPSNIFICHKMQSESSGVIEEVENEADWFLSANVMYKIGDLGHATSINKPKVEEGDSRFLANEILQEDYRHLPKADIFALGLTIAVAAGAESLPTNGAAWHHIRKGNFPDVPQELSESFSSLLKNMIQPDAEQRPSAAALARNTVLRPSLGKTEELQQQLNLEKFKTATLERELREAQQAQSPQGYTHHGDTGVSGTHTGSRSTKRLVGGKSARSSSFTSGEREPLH
Sequence of Proto-oncogene tyrosine-protein kinase receptor Ret (Homo sapiens), P07949 [V804L] (P07949 whole entry V804L): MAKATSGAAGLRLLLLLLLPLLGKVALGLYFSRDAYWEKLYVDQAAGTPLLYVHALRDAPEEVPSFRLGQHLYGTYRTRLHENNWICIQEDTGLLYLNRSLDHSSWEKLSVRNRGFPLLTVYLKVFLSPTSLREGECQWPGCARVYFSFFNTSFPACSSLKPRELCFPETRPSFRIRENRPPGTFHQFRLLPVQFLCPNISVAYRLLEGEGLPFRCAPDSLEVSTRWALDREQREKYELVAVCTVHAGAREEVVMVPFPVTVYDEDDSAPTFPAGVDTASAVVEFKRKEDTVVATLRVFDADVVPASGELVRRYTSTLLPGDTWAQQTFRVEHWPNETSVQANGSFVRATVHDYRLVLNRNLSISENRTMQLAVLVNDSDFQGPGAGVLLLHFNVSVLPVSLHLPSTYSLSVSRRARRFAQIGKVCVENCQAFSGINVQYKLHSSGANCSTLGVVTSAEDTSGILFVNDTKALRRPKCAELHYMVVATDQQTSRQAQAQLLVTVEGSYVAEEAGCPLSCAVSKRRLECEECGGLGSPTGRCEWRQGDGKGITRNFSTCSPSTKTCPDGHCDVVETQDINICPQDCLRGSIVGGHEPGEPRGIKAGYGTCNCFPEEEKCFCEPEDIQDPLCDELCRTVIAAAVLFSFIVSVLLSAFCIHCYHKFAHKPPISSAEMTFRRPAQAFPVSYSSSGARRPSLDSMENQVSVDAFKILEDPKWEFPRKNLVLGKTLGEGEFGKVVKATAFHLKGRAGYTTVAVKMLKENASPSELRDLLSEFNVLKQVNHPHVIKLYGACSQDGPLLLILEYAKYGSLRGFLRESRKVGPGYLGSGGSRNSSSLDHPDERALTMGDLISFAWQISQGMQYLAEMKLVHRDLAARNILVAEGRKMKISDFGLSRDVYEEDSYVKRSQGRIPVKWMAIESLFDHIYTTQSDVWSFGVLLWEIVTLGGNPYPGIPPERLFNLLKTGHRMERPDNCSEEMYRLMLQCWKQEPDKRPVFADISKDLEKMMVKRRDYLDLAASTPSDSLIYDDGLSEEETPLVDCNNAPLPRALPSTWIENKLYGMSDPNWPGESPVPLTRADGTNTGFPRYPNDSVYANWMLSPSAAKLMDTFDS
Sequence of Mast/stem cell growth factor receptor Kit (Homo sapiens), P10721 [L576P] (P10721 whole entry L576P): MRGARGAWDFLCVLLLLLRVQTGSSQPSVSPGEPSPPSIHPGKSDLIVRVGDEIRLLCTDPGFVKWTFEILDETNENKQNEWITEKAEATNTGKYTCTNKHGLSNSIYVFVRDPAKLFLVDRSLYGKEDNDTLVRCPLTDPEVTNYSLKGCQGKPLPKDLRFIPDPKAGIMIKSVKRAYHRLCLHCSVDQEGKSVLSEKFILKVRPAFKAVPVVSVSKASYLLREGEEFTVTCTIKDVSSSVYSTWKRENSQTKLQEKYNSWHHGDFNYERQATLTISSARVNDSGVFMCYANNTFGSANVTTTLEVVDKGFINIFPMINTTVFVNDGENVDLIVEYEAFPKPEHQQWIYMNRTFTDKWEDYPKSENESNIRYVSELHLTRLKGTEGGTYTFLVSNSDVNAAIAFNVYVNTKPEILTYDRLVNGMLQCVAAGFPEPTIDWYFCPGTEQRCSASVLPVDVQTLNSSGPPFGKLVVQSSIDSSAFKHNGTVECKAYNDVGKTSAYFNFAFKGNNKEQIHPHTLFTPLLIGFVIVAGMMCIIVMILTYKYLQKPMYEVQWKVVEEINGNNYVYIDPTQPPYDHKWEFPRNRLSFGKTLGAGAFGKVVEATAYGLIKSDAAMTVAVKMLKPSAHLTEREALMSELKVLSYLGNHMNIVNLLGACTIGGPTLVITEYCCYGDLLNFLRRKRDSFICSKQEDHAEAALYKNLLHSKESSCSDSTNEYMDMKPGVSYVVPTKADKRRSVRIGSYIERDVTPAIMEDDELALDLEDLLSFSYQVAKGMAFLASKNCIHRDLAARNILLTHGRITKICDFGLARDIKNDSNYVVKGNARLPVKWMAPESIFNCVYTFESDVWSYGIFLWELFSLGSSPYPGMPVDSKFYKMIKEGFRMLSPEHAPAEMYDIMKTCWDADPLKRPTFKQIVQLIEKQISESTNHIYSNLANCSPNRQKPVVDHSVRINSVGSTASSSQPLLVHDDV
Sequence of Dual specificity mitogen-activated protein kinase kinase 2 (Homo sapiens) (P36507 whole entry): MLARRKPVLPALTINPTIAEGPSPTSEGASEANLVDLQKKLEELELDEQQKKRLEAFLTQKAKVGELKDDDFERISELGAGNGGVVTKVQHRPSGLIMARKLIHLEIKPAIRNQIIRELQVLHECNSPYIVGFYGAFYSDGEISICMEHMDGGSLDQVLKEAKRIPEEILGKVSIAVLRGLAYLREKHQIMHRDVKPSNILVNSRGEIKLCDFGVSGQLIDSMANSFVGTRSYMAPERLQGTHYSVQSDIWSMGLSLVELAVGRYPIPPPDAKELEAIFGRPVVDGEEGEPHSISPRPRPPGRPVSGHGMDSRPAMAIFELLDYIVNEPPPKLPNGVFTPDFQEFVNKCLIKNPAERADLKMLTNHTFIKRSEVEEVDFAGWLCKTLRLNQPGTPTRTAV
Sequence of Mitogen-activated protein kinase 3 (Homo sapiens) (P27361 whole entry): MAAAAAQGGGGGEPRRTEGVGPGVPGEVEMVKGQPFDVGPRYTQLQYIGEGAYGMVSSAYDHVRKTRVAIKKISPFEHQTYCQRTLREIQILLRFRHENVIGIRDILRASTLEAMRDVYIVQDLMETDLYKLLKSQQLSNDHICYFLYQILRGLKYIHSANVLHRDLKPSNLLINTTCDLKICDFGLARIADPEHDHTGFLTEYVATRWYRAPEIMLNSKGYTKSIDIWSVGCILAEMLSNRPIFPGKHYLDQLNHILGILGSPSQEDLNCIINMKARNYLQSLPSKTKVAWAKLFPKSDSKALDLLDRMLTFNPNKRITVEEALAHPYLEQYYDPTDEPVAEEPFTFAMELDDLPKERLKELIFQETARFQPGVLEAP

Compound: CCN1CCN(Cc2ccc(NC(=O)c3ccc(C)c(/C=C/c4cnc5[nH]ccc5c4OC)c3)cc2C(F)(F)F)CC1
- percent of control [1]: 3.4%
- residual activity [2]: 0.15%
- inhibition [3]: -5.4%

Compound: CCN1CCN(Cc2ccc(NC(=O)c3ccc(C)c(Oc4ccnc5[nH]ccc45)c3)cc2C(F)(F)F)CC1
- inhibition [4]: 12%
- inhibition [5]: inactive
- inhibition [6]: 86.8%
- inhibition [7]: 96.6%
- inhibition [8]: inactive
- inhibition at 10 µM [9]: 11.8%
- inhibition [10]: 13.2%
- inhibition [11]: inactive
- inhibition [12]: -3.4%
- inhibition [13]: 5%

Compound: CNc1cc(Oc2cc(C(=O)Nc3cc(N4CCN(C)CC4)cc(C(F)(F)F)c3)ccc2C)ncn1
- inhibition at 1 µM [14]: 10.4%

Reference: ChEMBL document CHEMBL5696442, “Discovery of type II inhibitors of TGFβ-activated kinase 1 (TAK1) and mitogen-activated protein kinase kinase kinase kinase 2 (MAP4K2)” (J Med Chem, 2015)
